Measured values from US6511827B1 (Merck & Co., Inc., priority 1997, dated 2003).

Assays:
galanin receptors = details: hypothalamus, ventral hippocampus, basal forebrain, spinal cord, pancreas and pituitary; cited from earlier work
human GALR3 = test: Specific binding of ^125I-galanin radioligands to membranes of COS-7 cells transfected with GALR3 clones, as a function of membrane protein
Procedure: Mammalian COS-7 cells were transfected by electroporation. COS-7 cells (1×10^7) were suspended in 0.85 ml of Ringers' buffer and […] of the GALR3-2 or GALR3—3 expression plasmid was added to a 0.4 mm electroporation cuvette (Bio-Rad, Hercules, Calif.). Current was applied ([…], 260 V) using a Bio-Rad Electroporator device and the cells were transferred to a T-180 flask (Corning). Expression was allowed to proceed for 72 hrs.
Membranes were prepared from transfected cells following dissociation in enzyme-free dissociation solution (Specialty Media, Lavallette, N.J.) by disruption in a Dounce homogenizer in ice-cold membrane buffer (10 mM Tris, pH 7.4, 10 mM PMSF, […], and […]). After a low speed (1100×g for 10 min. at 4° C.) and a high speed centrifugation (38,700×g for 15 min. at 4° C.), membranes were resuspended in buffer and protein concentration determined (Bio-Rad assay kit). […] Reactions were initiated by the addition of membranes and the incubation was allowed to proceed at room temperature for 1 hour. […] Titration of membrane protein from 1 to 50 μg was conducted. […] Incubations were terminated by rapid filtration through GF/C filters which had been presoaked with 0.1% polyethylamine using a TOMTEC (Orange, Conn.) cell harvester. The results were analyzed using the Prism software package (GraphPad, San Diego, Calif.).

Row | Substance | Kd (galanin receptors) | Specific binding of radioligand (human GALR3; Clone GALR3-3, membrane protein 5 μg) | Specific binding of radioligand (human GALR3; Clone GALR3-3, membrane protein 10 μg) | Specific binding of radioligand (human GALR3; Clone GALR3-3, membrane protein 20 μg) | Specific binding of radioligand (human GALR3; Clone GALR3-3, membrane protein 50 μg)
1 | ^125I-galanin | ~1 nM |  |  |  | 
2 | ^125I-human galanin |  | 211 cpm | 407 cpm | 886 cpm | 2061 cpm
